In patent US6878690B2, “Compounds and methods” (PharmAxis Pty Ltd., priority 2000, dated 2005):
Values joined by “and” are separate entries in the source; they are usually repeats but may differ in a detail not shown here. Identical values can stand only once.

Legend:
[1] = tested on: passively transferred adjuvant arthritis; assay: Passively transferred adjuvant induced arthritis; format: in vivo, DA rats; settings: 25 mg/kg/day, end of the one week treatment period, FIG. 1
Method: Male DA rats 8 to 10 week old were immunised with three 100 microliter injections of Complete Freund's Adjuvant (CFA) intradermally at the base of the tail. The CFA was prepared by mixing 8 mg/ml of Mycobacterium butyricum (Difco Laboratories, USA) that had been ground to a fine powder using a mortar and pestle, in 85% light mineral oil (Sigma, USA) and 15% mannide monooleate (Sigma) and emulsifying this suspension, one part in one part saline. Thus, the final emulsion contained 4 mg/ml of M. butyricum.
Ten days after immunisation the rats were euthanased and the spleens removed aseptically. A single cell suspension was prepared in the usual manner in mixed lymphocyte culture medium (MLC) (Dulbecco's Modified Eagle's Medium (DMEM) plus glucose, folic acid, L-asparagine, sodium pyruvate, HEPES, 2-mercapto ethanol, penicillin, streptomycin, neomycin and 10% fetal calf serum) by pushing the spleens through a stainless steel sieve. The cells were placed in culture in MLC medium with 2 micrograms/ml concanavalin A added such that the lymphocyte concentration was 2 million cells per milliliter. These cells were cultured aseptically at 37° C. in an atmosphere containing 5% carbon dioxide for 72 hours.
Groups of 4 or 5 DA rats, 6 to 8 weeks of age were anesthetised with diethyl ether and implanted subcutaneously on the flank with Alzet 2002 (2 week delivery) or 2001 (1 week delivery) mini-osmotic pumps (Alza Corp., Palo Alto Calif., USA). One treatment group received phosphoric acid mono-(6-propyl-3,4,5-trihydroxy-tetrahydro-pyran-2-ylmethyl) ester in the one week delivery Alzet 2001 mini-osmotic pumps. The drug was delivered at a dose of 25 mg/kg/day. The control group for this experiment received identical mini-osmotic pumps containing normal saline. In a second experiment another group of DA rats received ethyl (3,4,5-trihydroxy-6-phosphonooxymethyl-tetrahydro-pyran-2-yl)-acetic acid ester in the two week delivery Alzet 2002 mini-osmotic pumps. This drug was delivered at a dose of 37 mg/kg/day. Control animals for this group received saline delivered in identical mini-osmotic pumps. The pumps in each case were implanted subcutaneously on the flank of each animal. […]
After 5 to 8 days, a characteristic thickening and cutaneous hyperemia of the distal joints of the hind legs became clinically apparent in the saline control animals. Disease severity was evaluated and graded in each group by taking daily measurements of the mediolateral widths of both ankle joints. The data were expressed as the mean of the change (compared with width prior to cell injection) in mediolateral ankle width expressed in millimeters (±standard error of the mean).

[2] = tested on: passively transferred EAE; assay: Passively transferred EAE induced with encephalitogenic MBP-specific T cell line (Example 23); format: in vivo, Lewis rats; settings: for clinical scores treated, mean: group mean; for clinical scores treated, mean / clinical scores treated: scale 0 to 5; for clinical scores treated: individual rats, 45 mg/kg/rat/day mini-osmotic pump
Method: In order to study the effect of the agents of the present invention in vivo on a disease caused by T lymphocyte migration into a specific tissue, experiments were performed in the Lewis rat model of passively transferred EAE. Here, myelin basic protein (MBP)-specific T lymphocyte cell lines were generated from the draining lymph nodes of Lewis rats that had been immunised with MBP in Freund's complete adjuvant essentially according to the method of Ben-Nun et al. (1981) as described in Example 8. Thus, in this manner, donor T lymphocytes were generated from female 10 to 12 week old Lewis rats weighing 150 to 200 g. These rats were injected intradermally in a footpad of each hind foot with an emulsion of Guinea pig myelin basic protein (MBP; prepared according to the method of Deibler et al., 1972; incorporated herein by reference) in Freund's complete adjuvant (0.05 ml). The adjuvant emulsion was prepared by emulsifying equal volumes of a mixture of light mineral oil (Sigma) and normal saline containing Guinea pig myelin basic protein (0.5 mg/ml) and Mycobacterium butyricum (4 mg/ml; Difco). Thus, the total dose per rat was 50 micrograms of MBP and 400 micrograms of M. butyricum. Approximately 11 days following injection, the rats were euthanased and the draining lymph nodes (popliteal and inguinal) removed aseptically by blunt dissection and placed into mixed lymphocyte culture medium. This medium was prepared in the normal fashion from Dulbecco's Modified Eagle's Medium (DMEM; GIBCO, Grand Island, N.Y.) supplemented with glucose, folic acid, L-asparagine, sodium bicarbonate, L-glutamine, sodium pyruvate, HEPES, 2-mercaptoethanol (5×10^−5 M), penicillin, streptomycin, neomycin, and 2% fetal calf serum. A single cell suspension was prepared from the lymph nodes in the usual manner by gently pushing the nodes through a stainless steel screen. The cells were washed twice in the culture medium and following this procedure, any red blood cells were lysed in the usual manner by treating with a solution of ammonium chloride, EDTA and sodium hydrogen carbonate (pH 7.3) and the preparation strained (Falcon 2350 cell strainer). The cells were washed again in the lymphocyte culture medium. All cell preparative steps were performed on ice. These cells were cultured asceptically for 72 hours at 37° C. in a humidified atmosphere containing 7.5% carbon dioxide at a concentration of 5 million cells per milliliter in the presence of MBP (0.06 mg/ml). The cells were collected and the lymphoblasts were isolated by centrifugation on a Ficoll (Pharmacia, Uppsala, Sweden) gradient in an identical manner to that described by Ben Nun et al. (1981). The fraction containing ≧90% lymphoblasts was cultured and propagated in Eagle's medium supplemented with 15% of a concanavalin A-stimulated lymphocyte supernatant to provide growth factors, 10% fetal calf serum, nonessential amino acids (Bio-Lab, Jerusalem, Israel); sodium pyruvate, 2-mercapto ethanol and antibiotics without added antigen. The cells were plated in 100 mm petri dishes at a concentration of 0.2 million cells/ml and replated every 3 or 4 days. Prior to transfer into Lewis recipients, the cells were restimulated in the presence of MBP (0.01 mg/ml) and irradiated syngeneic thymocytes for 4 days.
These cells were highly encephalitogenic sine as few as 500,000 cells were capable of inducing disease when injected into naïve Lewis rats. Thus, in a typical experiment a group of 5 female Lewis rats, approximately 9 weeks old, weighing 110±15 grams were anesthetised with diethyl ether and implanted with mini-osmotic pumps (Alzet 2002, Alza Corp., Palo Alto Calif., USA) containing phosphoric acid mono-(6-propyl-3,4,5-trihydroxy-tetrahydro-pyran-2-ylmethyl) ester mono sodium salt dissolved in normal saline at a concentration that delivered the drug at a rate of 45 mg/kg/rat/day. […]

CCCC1OC(COP(=O)(O)O)C(O)C(O)C1O (stereo not drawn) [phosphoric acid mono-(6-propyl-3,4,5-trihydroxy-tetrahydro-pyran-2-ylmethyl) ester]
swelling in the affected joints of treated animals ([1]; one week Alzet 2001 pump subcutaneously, controls severe swelling): little swelling | disease status of the treated versus the control animals ([1]; one week Alzet 2001 pump): highly statistically significant difference | clinical scores treated, mean ([2]; day 4, 45 mg/kg/rat/day): 0 | clinical scores treated ([2]; day 4): 0 | clinical scores treated, mean ([2]; day 5, 45 mg/kg/rat/day): 0.6 | clinical scores treated ([2]; day 5, 45 mg/kg): 1 (3×) and 0 (2×) | clinical scores treated, mean ([2]; day 6, 45 mg/kg/rat/day): 1 | clinical scores treated ([2]; day 6, 45 mg/kg): 2 (2×) and 0 (2×) and 1 | clinical scores treated, mean ([2]; day 7, 45 mg/kg/rat/day): 0.4 | clinical scores treated ([2]; day 7, 45 mg/kg): 0 (3×) and 1 (2×) | Mean maximum clinical score ([2]; treated group, 45 mg/kg/rat/day, control group 2.0): clinical score 1.0 | disease index (DI) ([2]; treated group, 45 mg/kg/rat/day, control group DI 160): DI 40
